{"source": "patent US4282244A", "about": "“Optical isomers of 4-amino-N-(1-cyclohexyl-3-pyrrolidinyl)-N-methylbenzamide” (A. H. Robins Company, Inc., priority 1980, dated 1981)", "key": {"rat": {"test_system": "rat", "experiment": "acute toxicity (LD50), rat", "assay_type": "in vivo", "settings": "fumarate salt, expressed as free base", "description": "(§1) The acute toxicities of the ±-racemate, the (+)-isomer and the (-)-isomer were conducted with the fumarate salts and probit analysis (Finney, D. J., Statistical Methods in Biological Assay, Hafner Pub. Co., N.Y., 2nd. Ed., 1964) was employed for the statistical treatment of the mortality data."}, "mouse": {"test_system": "mouse", "experiment": "acute toxicity (LD50), mouse", "assay_type": "in vivo", "settings": "fumarate salt, expressed as free base", "description": "as §1"}, "[1]": {"test_system": "Metoclopramide-Induced Catalepsy", "experiment": "Effects on Metoclopramide-Induced Catalepsy", "assay_type": "in vivo, rat", "settings": "Metoclopramide 40 mg/kg IP", "description": "(§2) (+)-4-Amino-N-(1-cyclohexyl-3-pyrrolidinyl)-N-methylbenzamide is useful in reducing the cataleptic side effects of known therapeutically effective drugs such as chlorpromazine [2-chloro-10-(3-dimethylaminopropyl)phenothiazine] and metoclopramide (N-diethylaminoethyl 2-methoxy-4-amino-5-chlorophenylcarboxamide). The effectiveness is shown in Tables IV and V. In each test the rat was administered a 100% effective cataleptic dose of the test drug followed one hour later by an effective dose of (+)-4-amino-N-(1-cyclohexyl-3-pyrrolidinyl)-N-methylbenzamide."}, "[2]": {"test_system": "Chlorpromazine-Induced Catalepsy", "experiment": "Effects on Chlorpromazine-Induced Catalepsy", "assay_type": "in vivo, rat", "settings": "then (+)-isomer 25 mg/kg IP after one hour", "description": "as §2"}, "[3]": {"experiment": "cataleptic effects (Tedeschi et al.)", "assay_type": "in vivo, rat", "settings": "in vivo, rat, fumarate salt, expressed as free base", "text": "The procedure used for determing cataleptic effects of the fumarate salts was based on that of Tedeschi et al., Arch. Int. Pharmacodyn."}}, "note": "Counter-ions that a name gives are not always drawn.", "data": [{"smiles": "CN(C(=O)c1ccc(N)cc1)C1CCN(C2CCCCC2)C1", "note": "(single isomer, unassigned; (+)) [(+)-isomer, (+)-4-Amino-N-(1-cyclohexyl-3-pyrrolidinyl)-N-methyl benzamide Fumarate]", "values": [{"measurement": "LD50 (95% Confidence Limits)", "setting": "rat; I.P.", "value": "147 (134-222) mg/kg"}, {"measurement": "LD50 (95% Confidence Limits)", "setting": "rat; P.O.", "value": "499 (322-593) mg/kg"}, {"measurement": "LD50 (95% Confidence Limits)", "setting": "mouse; I.P.", "value": "126 (115-139) mg/kg"}, {"measurement": "LD50 (95% Confidence Limits)", "setting": "mouse; P.O.", "value": "267 (233-313) mg/kg"}, {"measurement": "Percent of Rats Cataleptic", "setting": "[1]; then (+)-isomer 12.5 mg/kg IP after one hour, 0.5 h after initial treatment", "value": 100, "unit": "%"}, {"measurement": "Percent of Rats Cataleptic", "setting": "[1]; then (+)-isomer 12.5 mg/kg IP after one hour, 1.0 h after initial treatment", "value": 100, "unit": "%"}, {"measurement": "Percent of Rats Cataleptic", "setting": "[1]; then (+)-isomer 12.5 mg/kg IP after one hour, 1.5 h after initial treatment", "value": 100, "unit": "%"}, {"measurement": "Percent of Rats Cataleptic", "setting": "[1]; then (+)-isomer 12.5 mg/kg IP after one hour, 2.0 h after initial treatment", "value": 88, "unit": "%"}, {"measurement": "Percent of Rats Cataleptic", "setting": "[1]; then (+)-isomer 12.5 mg/kg IP after one hour, 3.0 h after initial treatment", "value": 88, "unit": "%"}, {"measurement": "Percent of Rats Cataleptic", "setting": "[1]; then (+)-isomer 12.5 mg/kg IP after one hour, 4.0 h after initial treatment", "value": 100, "unit": "%"}, {"measurement": "Percent of Rats Cataleptic", "setting": "[1]; then (+)-isomer 12.5 mg/kg IP after one hour, 5.0 h after initial treatment", "value": 100, "unit": "%"}, {"measurement": "Percent of Rats Cataleptic", "setting": "[1]; then (+)-isomer 12.5 mg/kg IP after one hour, 6.0 h after initial treatment", "value": 100, "unit": "%"}, {"measurement": "Percent of Rats Cataleptic", "setting": "[1]; then (+)-isomer 12.5 mg/kg IP after one hour, 7.0 h after initial treatment", "value": 100, "unit": "%"}, {"measurement": "Percent of Rats Cataleptic", "setting": "[1]; then (+)-isomer 25 mg/kg IP after one hour, 0.5 h after initial treatment", "value": 100, "unit": "%"}, {"measurement": "Percent of Rats Cataleptic", "setting": "[1]; then (+)-isomer 25 mg/kg IP after one hour, 1.0 h after initial treatment", "value": 100, "unit": "%"}, {"measurement": "Percent of Rats Cataleptic", "setting": "[1]; then (+)-isomer 25 mg/kg IP after one hour, 1.5 h after initial treatment", "value": 100, "unit": "%"}, {"measurement": "Percent of Rats Cataleptic", "setting": "[1]; then (+)-isomer 25 mg/kg IP after one hour, 2.0 h after initial treatment", "value": 75, "unit": "%"}, {"measurement": "Percent of Rats Cataleptic", "setting": "[1]; then (+)-isomer 25 mg/kg IP after one hour, 3.0 h after initial treatment", "value": 38, "unit": "%"}, {"measurement": "Percent of Rats Cataleptic", "setting": "[1]; then (+)-isomer 25 mg/kg IP after one hour, 4.0 h after initial treatment", "value": 75, "unit": "%"}, {"measurement": "Percent of Rats Cataleptic", "setting": "[1]; then (+)-isomer 25 mg/kg IP after one hour, 5.0 h after initial treatment", "value": 88, "unit": "%"}, {"measurement": "Percent of Rats Cataleptic", "setting": "[1]; then (+)-isomer 25 mg/kg IP after one hour, 6.0 h after initial treatment", "value": 88, "unit": "%"}, {"measurement": "Percent of Rats Cataleptic", "setting": "[1]; then (+)-isomer 40 mg/kg IP after one hour, 0.5 h after initial treatment", "value": 88, "unit": "%"}, {"measurement": "Percent of Rats Cataleptic", "setting": "[1]; then (+)-isomer 40 mg/kg IP after one hour, 1.0 h after initial treatment", "value": 88, "unit": "%"}, {"measurement": "Percent of Rats Cataleptic", "setting": "[1]; then (+)-isomer 40 mg/kg IP after one hour, 1.5 h after initial treatment", "value": 25, "unit": "%"}, {"measurement": "Percent of Rats Cataleptic", "setting": "[1]; then (+)-isomer 40 mg/kg IP after one hour, 2.0 h after initial treatment", "value": 13, "unit": "%"}, {"measurement": "Percent of Rats Cataleptic", "setting": "[1]; then (+)-isomer 40 mg/kg IP after one hour, 3.0 h after initial treatment", "value": 38, "unit": "%"}, {"measurement": "Percent of Rats Cataleptic", "setting": "[1]; then (+)-isomer 40 mg/kg IP after one hour, 4.0 h after initial treatment", "value": 38, "unit": "%"}, {"measurement": "Percent of Rats Cataleptic", "setting": "[1]; then (+)-isomer 40 mg/kg IP after one hour, 5.0 h after initial treatment", "value": 88, "unit": "%"}, {"measurement": "Percent of Rats Cataleptic", "setting": "[1]; then (+)-isomer 40 mg/kg IP after one hour, 6.0 h after initial treatment", "value": 88, "unit": "%"}, {"measurement": "Percent of Rats Cataleptic", "setting": "[1]; then (+)-isomer 40 mg/kg IP after one hour, 7.0 h after initial treatment", "value": 88, "unit": "%"}, {"measurement": "Percent of Rats Cataleptic", "setting": "[1]; then (+)-isomer 50 mg/kg IP after one hour, 0.5 h after initial treatment", "value": 100, "unit": "%"}, {"measurement": "Percent of Rats Cataleptic", "setting": "[1]; then (+)-isomer 50 mg/kg IP after one hour, 1.0 h after initial treatment", "value": 100, "unit": "%"}, {"measurement": "Percent of Rats Cataleptic", "setting": "[1]; then (+)-isomer 50 mg/kg IP after one hour, 1.5 h after initial treatment", "value": 13, "unit": "%"}, {"measurement": "Percent of Rats Cataleptic", "setting": "[1]; then (+)-isomer 50 mg/kg IP after one hour, 2.0 h after initial treatment", "value": 13, "unit": "%"}, {"measurement": "Percent of Rats Cataleptic", "setting": "[1]; then (+)-isomer 50 mg/kg IP after one hour, 3.0 h after initial treatment", "value": 25, "unit": "%"}, {"measurement": "Percent of Rats Cataleptic", "setting": "[1]; then (+)-isomer 50 mg/kg IP after one hour, 4.0 h after initial treatment", "value": 25, "unit": "%"}, {"measurement": "Percent of Rats Cataleptic", "setting": "[1]; then (+)-isomer 50 mg/kg IP after one hour, 5.0 h after initial treatment", "value": 75, "unit": "%"}, {"measurement": "Percent of Rats Cataleptic", "setting": "[1]; then (+)-isomer 50 mg/kg IP after one hour, 6.0 h after initial treatment", "value": 88, "unit": "%"}, {"measurement": "Percent of Rats Cataleptic", "setting": "[1]; then (+)-isomer 50 mg/kg IP after one hour, 7.0 h after initial treatment", "value": 75, "unit": "%"}, {"measurement": "Percent of Rats Cataleptic", "setting": "[2]; Chlorpromazine 4 mg/kg IP, 0.5 h after initial treatment", "value": 100, "unit": "%"}, {"measurement": "Percent of Rats Cataleptic", "setting": "[2]; Chlorpromazine 4 mg/kg IP, 1.0 h after initial treatment", "value": 100, "unit": "%"}, {"measurement": "Percent of Rats Cataleptic", "setting": "[2]; Chlorpromazine 4 mg/kg IP, 1.5 h after initial treatment", "value": 50, "unit": "%"}, {"measurement": "Percent of Rats Cataleptic", "setting": "[2]; Chlorpromazine 4 mg/kg IP, 2.0 h after initial treatment", "value": 33, "unit": "%"}, {"measurement": "Percent of Rats Cataleptic", "setting": "[2]; Chlorpromazine 4 mg/kg IP, 3.0 h after initial treatment", "value": 33, "unit": "%"}, {"measurement": "Percent of Rats Cataleptic", "setting": "[2]; Chlorpromazine 4 mg/kg IP, 4.0 h after initial treatment", "value": 50, "unit": "%"}, {"measurement": "Percent of Rats Cataleptic", "setting": "[2]; Chlorpromazine 4 mg/kg IP, 5.0 h after initial treatment", "value": 100, "unit": "%"}, {"measurement": "Percent of Rats Cataleptic", "setting": "[2]; Chlorpromazine 4 mg/kg IP, 6.0 h after initial treatment", "value": 67, "unit": "%"}, {"measurement": "Percent of Rats Cataleptic", "setting": "[2]; saline 10 ml/kg IP, 0.5 h after initial treatment", "value": 0, "unit": "%"}, {"measurement": "Percent of Rats Cataleptic", "setting": "[2]; saline 10 ml/kg IP, 1.0 h after initial treatment", "value": 0, "unit": "%"}, {"measurement": "Percent of Rats Cataleptic", "setting": "[2]; saline 10 ml/kg IP, 1.5 h after initial treatment", "value": 0, "unit": "%"}, {"measurement": "Percent of Rats Cataleptic", "setting": "[2]; saline 10 ml/kg IP, 2.0 h after initial treatment", "value": 0, "unit": "%"}, {"measurement": "Percent of Rats Cataleptic", "setting": "[2]; saline 10 ml/kg IP, 3.0 h after initial treatment", "value": 0, "unit": "%"}, {"measurement": "Percent of Rats Cataleptic", "setting": "[2]; saline 10 ml/kg IP, 4.0 h after initial treatment", "value": 17, "unit": "%"}, {"measurement": "Percent of Rats Cataleptic", "setting": "[2]; saline 10 ml/kg IP, 5.0 h after initial treatment", "value": 17, "unit": "%"}, {"measurement": "Percent of Rats Cataleptic", "setting": "[2]; saline 10 ml/kg IP, 6.0 h after initial treatment", "value": 0, "unit": "%"}, {"measurement": "NOAEL", "setting": "[3]; IP", "value": 100, "unit": "mg/kg"}, {"measurement": "NOAEL", "setting": "[3]; PO", "value": 200, "unit": "mg/kg"}]}]}
